Test results reported in patent US5223526A, “Pyrazole carboxanilide fungicides and use” (Monsanto Company, priority 1992, dated 1993).

Experiments:
succinate dehydrogenase = molecular target: T1, succinate dehydrogenase (Botrytis cinerea, UniProt A0A384J5E4+A0A384J8V8+A0A384JHJ5); assay: Enzyme inhibition: succinate dehydrogenase activity in Botrytis cinerea mitochondria (DCPIP reduction); type: biochemical; settings: concentration required to inhibit the rate of DCPIP reduction by 50%; Botrytis cinerea isolate Nick mitochondria; read-out: I50 (μM conc.)
T1 construct: succinate-DCPIP reductase assay with KCN
Method in brief: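 Crude mitochondria from Botrytis cinerea isolate Nick mycelia, prepared by bead-beating and differential centrifugation, started reactions. SDH activity followed as DCPIP reduction at 600 nm in 50 mM K-phosphate pH 7.2 with 1 mM KCN, 45 μM DCPIP, 17 mM succinate, 1% acetone. I50 from semilog inhibition plots, corrected for succinate-free rates.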

Botrytis cinerea [1] = assay: Eggplant grey mold; type: in vivo; parameters: scale not given here; settings: inoculated 24 h later, rated after 3-4 days; for Disease Control Rating at 20 ppm: eggplant sprayed with 20 ppm; for Disease Control Rating at 100 ppm: eggplant sprayed with 100 ppm; for Disease Control Rating at 500 ppm: eggplant sprayed with 500 ppm
Method in brief: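 Protective test: compound formulations (2:3 acetone:water, 0.5% Tween 20; 500, 100 or 20 ppm) sprayed on 14-18-day-old plants, with spore inoculum (4×10^6 spore/mL) applied a day later. Disease control rated on Botrytis lesions after 3-4 days at 23 °C and 100% humidity.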

Botrytis cinerea [2] = assay: Vine grey mold (grape berries); type: in vivo; settings: average of six berries, 7-10 days; for pest or weed control at 50 ppm: grape berries treated with 50 ppm, read-out: % DISEASE CONTROL 50 ppm; for pest or weed control at 200 ppm: grape berries treated with 200 ppm, read-out: % DISEASE CONTROL 200 ppm
Method in brief: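 Preventive berry test: compound at 50 or 200 ppm (acetone/water, 0.05% Tween 20) applied one day before inoculation with 10^6 spores/mL Botrytis conidia. After 7-10 days at 20 °C under 12 h light, infected surface area rated; disease control expressed as percent reduction from control mean; repeated-test values averaged.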

Rhizoctonia solani = assay: Rice sheath blight; type: in vivo; parameters: scale not given here; settings: inoculated two days later, rated after 7 days, average of five plants; for Disease Control Rating at 0.5 mg/mL: foliage and soil sprayed with 0.5 mg/mL; for Disease Control Rating at 0.02 mg/mL: foliage and soil sprayed with 0.02 mg/mL; for Disease Control Rating at 0.1 mg/mL: foliage and soil sprayed with 0.1 mg/mL
Method in brief: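 Rice plants 11–15 days old had foliage and soil sprayed with 0.5, 0.1 or 0.02 mg/mL Compound A in water/acetone/Tween 20, then kept in flooded trays. Two days later, rice-grain Rhizoctonia solani inoculum went to plant bases; disease control scored versus untreated after 7 days at 25 °C, high humidity, averaging five plants.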

T1 sequence (A0A384J5E4 1-300): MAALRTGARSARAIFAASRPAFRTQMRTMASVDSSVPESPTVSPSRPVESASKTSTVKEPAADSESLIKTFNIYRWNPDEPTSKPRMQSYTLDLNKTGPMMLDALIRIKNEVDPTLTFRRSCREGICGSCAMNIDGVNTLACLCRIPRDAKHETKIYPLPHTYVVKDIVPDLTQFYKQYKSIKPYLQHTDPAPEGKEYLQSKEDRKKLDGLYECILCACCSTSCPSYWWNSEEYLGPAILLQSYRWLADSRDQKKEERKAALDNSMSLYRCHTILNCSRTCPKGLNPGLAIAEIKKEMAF
T1 sequence (A0A384J8V8 1-189): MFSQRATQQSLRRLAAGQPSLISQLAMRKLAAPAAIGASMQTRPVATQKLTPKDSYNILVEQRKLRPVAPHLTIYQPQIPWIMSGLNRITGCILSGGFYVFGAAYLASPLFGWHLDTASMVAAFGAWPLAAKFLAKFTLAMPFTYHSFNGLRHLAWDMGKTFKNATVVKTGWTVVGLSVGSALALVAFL
T1 sequence (A0A384JHJ5 1-192): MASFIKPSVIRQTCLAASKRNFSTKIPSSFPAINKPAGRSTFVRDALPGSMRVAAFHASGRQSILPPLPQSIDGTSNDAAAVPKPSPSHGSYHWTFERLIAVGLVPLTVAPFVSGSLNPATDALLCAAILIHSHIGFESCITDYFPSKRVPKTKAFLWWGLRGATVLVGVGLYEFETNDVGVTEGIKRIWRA
T1 sequence (A0A384K456 1-647 partner): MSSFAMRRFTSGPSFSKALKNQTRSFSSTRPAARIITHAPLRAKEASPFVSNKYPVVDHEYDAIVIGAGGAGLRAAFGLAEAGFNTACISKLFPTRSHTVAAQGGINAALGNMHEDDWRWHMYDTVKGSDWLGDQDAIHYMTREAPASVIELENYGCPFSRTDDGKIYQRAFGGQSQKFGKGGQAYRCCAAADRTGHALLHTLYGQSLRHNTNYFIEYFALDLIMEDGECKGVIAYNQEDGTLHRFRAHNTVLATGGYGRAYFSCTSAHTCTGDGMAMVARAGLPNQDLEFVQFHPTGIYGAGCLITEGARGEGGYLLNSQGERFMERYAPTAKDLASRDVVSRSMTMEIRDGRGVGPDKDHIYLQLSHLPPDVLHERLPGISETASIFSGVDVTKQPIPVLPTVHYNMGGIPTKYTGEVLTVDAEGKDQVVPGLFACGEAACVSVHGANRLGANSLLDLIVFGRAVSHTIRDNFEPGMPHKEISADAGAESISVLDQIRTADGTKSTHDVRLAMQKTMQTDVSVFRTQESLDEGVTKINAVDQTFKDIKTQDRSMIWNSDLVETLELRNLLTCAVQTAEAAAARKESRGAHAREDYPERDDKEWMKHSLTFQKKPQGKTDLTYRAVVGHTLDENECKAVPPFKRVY

Row | SMILES | IC50 (succinate dehydrogenase) [µM] | Disease Control Rating at 20 ppm (Botrytis cinerea [1]) | Disease Control Rating at 100 ppm (Botrytis cinerea [1]) | Disease Control Rating at 500 ppm (Botrytis cinerea [1]) | pest or weed control at 50 ppm (Botrytis cinerea [2]) [%] | pest or weed control at 200 ppm (Botrytis cinerea [2]) [%] | Disease Control Rating at 0.5 mg/mL (Rhizoctonia solani) | Disease Control Rating at 0.02 mg/mL (Rhizoctonia solani) | Disease Control Rating at 0.1 mg/mL (Rhizoctonia solani)
1 | Cn1cc(C(=O)Nc2ccc(F)cc2C2CCCCC2)c(C(F)(F)F)n1 [Example 12, 1H-pyrazole-4 carboxamide, N-(2-cyclohexyl-4-fluorophenyl)-1-methyl-3-(trifluoromethyl)-] | 0.0089 | 1 | 1 | 3 | 58 | 59 | 2 |  | 
2 | CC1=C(c2ccccc2NC(=O)c2cn(C)nc2C(F)F)C(C)CCC1 (stereo not shown) [Example 124, 1H-pyrazole-4-carboxamide, 3-(difluoromethyl)-N-[2-(2,6-dimethyl-1-cyclohexen-1-yl)phenyl]-1-methyl-] | 0.013 | 0 | 1 | 2 | 48 | 96 | 2 |  | 
3 | Cn1cc(C(=O)Nc2ccccc2O[C@H]2C[C@H]3CC[C@@H]2C3)c(C(F)F)n1 (relative stereo) [Example 82, 1H-pyrazole-4-carboxamide, N-[2-(bicyclo[2.2.1]hept-2-yloxy)-phenyl]-3-(difluoromethyl)-1-methyl-, endo-] | 0.065 |  |  | 0 | 0 | 0 | 3 | 3 | 3
4 | Cc1nn(C)c(Cl)c1C(=O)Nc1ccccc1C1CCCCCC1 [Example 107, 1H-pyrazole-4-carboxamide, 5-chloro-N-(2-cycloheptylphenyl)-1,3-dimethyl-] | 0.055 |  |  | 0 | 27 | 49 | 3 | 1 | 3
5 | Cn1nc(C(F)F)c(C(=O)Nc2ccccc2C2CCCCCC2)c1Cl [Example 114, 1H-pyrazole-4-carboxamide, 5-chloro-N-(2-cycloheptylphenyl)-3-(difluoromethyl)-1-methyl-] | 0.0036 | 0 | 1 | 2 | 78 | 90 | 3 | 3 | 3
6 | Cc1nn(C)cc1C(=O)Nc1ccccc1C1CCCCCC1 [Example 13, 1H-pyrazole-4-carboxamide, N-(2-cycloheptylphenyl)-1,3-dimethyl-] | 0.011 | 1 | 1 | 3 | 63 | 66 | 3 | 2 | 3
